Measurements from EP0409528A2, “Platinum triamine antitumor agents containing substituted anilines” (ENGELHARD CORPORATION, priority 1989, dated 1991).
“And” between values parts separate entries of the source, which are not always exact repeats. Identical values can stand only once.

How the values were obtained:
[1] = tested on: Sarcoma 180a; experiment: Sarcoma 180 ascites (S180a) antitumor screening; format: in vivo, female CFW mice; conditions: for %ILS: single ip on day 1, in water; for %ILS / activity against Sarcoma 180a: ILS > 50% indicates activity; for Surv: survivors per group of 6 mice; for maximum ILS: Sarcoma 180a, at 20 mg/kg; for maximum ILS / activity against Sarcoma 180a: single ip administration on Day 1; for activity against Sarcoma 180a: result in words
Experimental: (§1) All of the compounds of the Examples were tested against Sarcoma 180a in female CFW mice via single ip administration on Day 1. Two of the compounds were active in this system: cis -[Pt(NH3)2(4-iodoaniline)CI]N03 (maximum ILS = 81% at 20 mg/kg) and cis -[Pt(NH3)2(3-iodoaniline)Cl]NO3 (maximum ILS = 83% at 20 mg/kg). The remaining compounds were not active. cis -[Pt(NH3)2(4-iodoaniline)Cl]NO3 was also tested against L1210 leukemia in female CDF1 mice via single ip administration on Day 1.
Female CFW mice (18-25g) were implanted with 2 x 10^6 cells ip on day zero. Compounds were administered in 0.5 mL of water ip on day one. Groups of 6 mice were used for each test dose as well as controls as defined above. The test was run for twice the MST of the control group, with survivors counted as dying on that day. An ILS of > 50% indicates activity. The tumor line was maintained through weekly transfer of 4 x 10^6 cells in CFW mice.

[2] = tested on: L1210 leukemia; experiment: L1210 antitumor screening; format: in vivo, female CDF1 mice
Experimental: as §1
L1210 screening was conducted according to a published method. See Rose, et al, Cancer Treat. Repts ., 1982 , 66 , 135, which is incorporated herein by reference. Female CDF, mice (16-22g) were implanted with 1 x 10^6 tumor cells ip on day zero. Compounds were administered in 0.5 mL of water ip on day one. Groups of 6 mice were used for each dose. A control group of mice received only tumor and 0.5 mL of water. A positive control group received tumor and 8 mg/kg cisplatin in 0.5 mL of 0.15 M NaCI. The test was terminated after three times the mean survival time (MST) of the control group. Surviving mice were counted as dying on that day. Activity was determined based on the percent increase in MST of test mice over controls (%ILS). An ILS of > 25% represents activity. The tumor line was maintained through weekly transfer of 5 x 10^4 cells in DBA/2 mice.

[3] = S180a, dose 1.25 mg/kg ip day 1

Row | SMILES | %ILS ([1]; S180a, dose 1.25 mg/kg) [%] | %ILS ([1]; S180a, dose 2.5 mg/kg) [%] | %ILS ([1]; S180a, dose 5 mg/kg) [%] | %ILS ([1]; S180a, dose 10 mg/kg) [%] | %ILS ([1]; S180a, dose 20 mg/kg) [%] | %ILS ([1]; S180a, dose 40 mg/kg) [%] | Surv [1, 3] | Surv ([1]; S180a, dose 2.5 mg/kg ip day 1) | Surv ([1]; S180a, dose 5 mg/kg ip day 1) | Surv ([1]; S180a, dose 10 mg/kg ip day 1) | Surv ([1]; S180a, dose 20 mg/kg ip day 1) | Surv ([1]; S180a, dose 40 mg/kg ip day 1) | maximum ILS [1] [%] | activity against Sarcoma 180a [1] | also measured
1 | N.N.Nc1ccc(Cl)cc1.O=[N+]([O-])[O-].[Cl][Pt+] [cis-[Pt(NH3)2(4-chloroaniline)Cl]NO3] | 3 | 9 | 40 | 44 | -51 | -77 | 0/6 | 0/6 | 0/6 | 0/6 | 0/6 | 0/6 | – | – | –
2 | [NH2][Pt]([NH2])([Cl])[Cl] [Positive Control, cisplatin, reference compound] | – | – | – | – | – | – | – | – | – | – | – | – | – | – | Positive Control SURV ([2]; L1210, positive control group: 8 mg/kg cisplatin in 0.15 M NaCl ip day 1, survivors per 6 mice): 5/6; Positive Control %ILS ([2]; L1210, positive control group: 8 mg/kg cisplatin in 0.5 mL of 0.15 M NaCl ip day 1): 190%; Positive Control SURV ([1]; S180a, positive control group: 8 mg/kg cisplatin in 0.15 M NaCl ip day 1, survivors per 6 mice): 4/6 and 5/6 and 6/6; Positive Control %ILS ([1]; S180a, positive control group: 8 mg/kg cisplatin in 0.5 mL of 0.15 M NaCl ip day 1): 92% and 95% and 98%
3 | N.N.Nc1ccc(I)cc1.O=[N+]([O-])[O-].[Cl-].[Pt+2] [cis-[Pt(NH3)2(4-iodoaniline)Cl]NO3, cis-(Pt(NH3)2(4-iodoaniline)Cl]NO3] | -1 | 22 | 38 | 39 | 81 | – | 0/6 | 0/6 | 0/6 | 0/6 | 2/6 | – | 81 | active | %ILS ([2]; L1210, dose 1.25 mg/kg, single ip on day 1, ILS > 25% represents activity): 14%; Surv ([2]; L1210, survivors per group of 6 mice, dose 1.25 mg/kg ip day 1): 0/6; maximum ILS ([2]; L1210 leukemia, at 10 mg/kg, single ip administration on Day 1): 37%; activity against L1210 leukemia ([2]; result in words, single ip administration on Day 1, ILS > 25% represents activity): moderate level of activity; %ILS ([1]; S180a, dose 0.63 mg/kg): 12%; Surv ([1]; S180a, dose 0.63 mg/kg ip day 1): 0/6
4 | N.N.Nc1cccc(I)c1.O=[N+]([O-])[O-].[Cl-].[Pt+2] [cis-[Pt(NH3)2(3-iodoaniline)Cl]NO3] | -3 | 9 | 23 | 51 | 83 | 66 | 0/6 | 0/6 | 0/6 | 1/6 | 2/6 | 4/6 | 83 | active | –
5 | N.N.Nc1ccc(Br)cc1.O=[N+]([O-])[O-].[Cl][Pt+] [cis-[Pt(NH3)2(4-bromoaniline)Cl]NO3] | 2 | 7 | 38 | 44 | -14 | -74 | 0/6 | 0/6 | 0/6 | 1/6 | 2/6 | 0/6 | – | – | –
6 | N.N.Nc1ccc(F)cc1.O=[N+]([O-])[O-].[Cl-].[Pt+2] [cis-[Pt(NH3)2(4-fluoroaniline)Cl]NO3, cis-[Pt(NH3)2(4-fluoraniline)Cl]NO3] | 6 | 14 | 27 | 45 | -48 | -77 | 0/6 | 0/6 | 0/6 | 0/6 | 1/6 | 0/6 | – | – | –
